The target in data set [1] is CFTR-mediated chloride transport in human intestinal epithelial enteroid cells (Homo sapiens, UniProt P13569). In words: Membrane potential dye, Enteroid Assay A. Type of data set: cell-based. The settings on record: for EC50: read-out: Ent. A EC50. In outline: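 Membrane potential dye (20 μM methyl oxonol, with 30 μM CaCCinh-A01 and 30 μM Chicago Sky Blue) loaded 25 min at room temperature into ROCK-inhibitor-seeded human enteroid cells. Chloride-free stimulation buffer triggered transport, followed by 15 min fluorescence. % Activity relative to 3 μM/3 μM/300 nM triple-combination control.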

Where [2] appears, read: enteroid cells incubated with test compound 18-24 hours, acute 10 μM forskolin and 300 nM N-[2,4-bis(1,1-dimethylethyl)-5-hydroxyphenyl]-1,4-dihydro-4-oxoquinoline-3-carboxamide.
The mark [3] stands for this setting: percentage of chloride transport of triple combination control (3 μM N-[(6-amino-2-pyridyl)sulfonyl]-6-(3-fluoro-5-isobutoxy-phenyl)-2-[(4S)-2,2,4-trimethylpyrrolidin-1-yl]pyridine-3-carboxamide based).

Like-named read-outs stand apart in the source and are kept apart here. Some results are limits rather than exact numbers.

Chain of CFTR-mediated chloride transport in human intestinal epithelial enteroid cells (P13569 with tags, fused parts or gaps DEL508-508): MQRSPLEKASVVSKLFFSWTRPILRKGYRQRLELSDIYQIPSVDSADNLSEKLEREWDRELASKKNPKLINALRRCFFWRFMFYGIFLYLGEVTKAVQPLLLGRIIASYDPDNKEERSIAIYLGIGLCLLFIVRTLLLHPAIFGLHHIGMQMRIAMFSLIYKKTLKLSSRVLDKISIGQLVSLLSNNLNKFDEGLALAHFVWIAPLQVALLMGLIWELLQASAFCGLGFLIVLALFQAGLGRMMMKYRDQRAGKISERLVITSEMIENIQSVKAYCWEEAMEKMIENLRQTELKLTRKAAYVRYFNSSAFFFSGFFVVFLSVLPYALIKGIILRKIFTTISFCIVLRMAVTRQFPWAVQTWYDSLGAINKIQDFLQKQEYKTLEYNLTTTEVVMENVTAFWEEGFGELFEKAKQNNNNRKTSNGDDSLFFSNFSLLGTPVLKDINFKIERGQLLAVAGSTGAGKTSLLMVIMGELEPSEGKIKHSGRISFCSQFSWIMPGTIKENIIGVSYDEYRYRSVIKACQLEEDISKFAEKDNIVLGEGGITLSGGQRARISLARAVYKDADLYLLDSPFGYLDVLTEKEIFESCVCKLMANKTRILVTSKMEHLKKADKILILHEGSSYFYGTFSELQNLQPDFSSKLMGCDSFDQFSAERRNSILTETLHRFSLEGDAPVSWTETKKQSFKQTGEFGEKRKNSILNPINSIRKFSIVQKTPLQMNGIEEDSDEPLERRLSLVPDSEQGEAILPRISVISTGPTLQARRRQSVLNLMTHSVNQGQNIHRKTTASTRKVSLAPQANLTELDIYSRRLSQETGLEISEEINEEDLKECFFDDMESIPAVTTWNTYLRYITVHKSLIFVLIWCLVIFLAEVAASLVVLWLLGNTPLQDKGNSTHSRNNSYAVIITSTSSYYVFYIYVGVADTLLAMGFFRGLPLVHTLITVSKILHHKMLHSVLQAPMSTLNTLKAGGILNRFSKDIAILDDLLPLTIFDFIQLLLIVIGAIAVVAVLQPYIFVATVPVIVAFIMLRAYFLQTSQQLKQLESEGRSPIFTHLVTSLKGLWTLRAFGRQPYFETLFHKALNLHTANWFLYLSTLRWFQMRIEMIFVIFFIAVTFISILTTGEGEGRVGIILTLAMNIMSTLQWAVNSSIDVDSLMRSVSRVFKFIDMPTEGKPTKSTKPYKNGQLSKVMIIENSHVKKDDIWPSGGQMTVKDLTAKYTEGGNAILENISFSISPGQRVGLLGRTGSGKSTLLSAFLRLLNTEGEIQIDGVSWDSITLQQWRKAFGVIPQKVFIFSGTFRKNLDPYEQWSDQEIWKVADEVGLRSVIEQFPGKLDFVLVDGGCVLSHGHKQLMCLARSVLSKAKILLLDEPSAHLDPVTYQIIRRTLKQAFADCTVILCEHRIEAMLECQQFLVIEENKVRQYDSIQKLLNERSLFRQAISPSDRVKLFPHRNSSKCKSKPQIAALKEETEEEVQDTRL

In general, EC50 refers to the midpoint of the concentration-response curve. In turn, `Cc1cccc(C)c1-c1cc2nc(n1)NS(=O)(=O)c1cccc(c1)C(=O)N1CCN(C(=O)OC(C)(C)C)CC1C(C)O2` (stereo not shown) [Compound 173, tert-Butyl 13-(2,6-dimethylphenyl)-9-methyl-2,17,17-trioxo-10-oxa-17λ^6-thia-3,6,14,16,23-pentaazatetracyclo[16.3.1.111,15.03,8]tricosa-1(22),11,13,15(23),18,20-hexaene-6-carboxylate] yielded a ring closure, yield after HPLC (from Cc1cccc(C)c1-c1cc(OC(C)C2CN(C(=O)OC(C)(C)C)CCN2)nc(NS(=O)(=O)c2cccc(C(=O)O)c2)n1, amide bond, 13-membered ring, HATU/DIEA, DMF, 10.9 mM, 25.0 °C, 0.5 h) of 19%. Moreover, the EC50 in data set [1] (setting [2]) is 1000 to 3000 nM. Further, in data set [1] (setting [3]), the “Ent. A Max Activity (%)” value is “++ (++ is 30-60%)”.

With `Cc1cccc(C)c1-c1cc2nc(n1)NS(=O)(=O)c1cccc(c1)C(=O)N1CC[C@@H](C1)O2` [Compound 213, (3S)-17-(2,6-Dimethylphenyl)-2-oxa-13λ^6-thia-6,14,16,19-tetraazatetracyclo[13.3.1.13,6.18,12]henicosa-1(19),8(20),9,11,15,17-hexaene-7,13,13-trione], the ring closure, yield after HPLC (from Cc1cccc(C)c1-c1cc(O[C@H]2CCNC2)nc(NS(=O)(=O)c2cccc(C(=O)O)c2)n1, amide bond, 13-membered ring, HATU/TEA, DMF, 53.7 mM, 25.0 °C, 1.0 h) stood at 20%. The EC50 in data set [1] (setting [2]) lay in the range of 3000 to 30000 nM. Also, in data set [1] (setting [3]), the “Ent. A Max Activity (%)” value is recorded as “+++ (+++ is >60%)”.

`Cc1cccc(C)c1-c1cc2nc(n1)NS(=O)(=O)c1cccc(c1)C(=O)N1CCN(CCC3(C(F)(F)F)CC3)CC1CO2` (stereo not shown) [Compound 170, 13-(2,6-Dimethylphenyl)-6-{2-[1-(trifluoromethyl)cyclopropyl]ethyl}-10-oxa-17λ^6-thia-3,6,14,16,23-pentaazatetracyclo[16.3.1.111,15.03,8]tricosa-1(22),11,13,15(23),18,20-hexaene-2,17,17-trione] showed a ring closure, yield after HPLC (from Cc1cccc(C)c1-c1cc(OCC2CN(CCC3(C(F)(F)F)CC3)CCN2)nc(NS(=O)(=O)c2cccc(C(=O)O)c2)n1, amide bond, 13-membered ring, HATU/DIEA, DMF, 18.7 mM, 25.0 °C, 1.0 h, 3 steps) of 14%. Further, in data set [1] (setting [2]), the EC50 is below 1000 nM. Besides, in data set [1] (setting [3]), the “Ent. A Max Activity (%)” value is reported as “++ (++ is 30-60%)”.

Take `Cc1cccc(C)c1-c1cc2nc(n1)NS(=O)(=O)c1cccc(c1)C(=O)N1CCC(O2)c2ccccc2C1` (stereo not shown) [Compound 227, 12-(2,6-dimethylphenyl)-15-oxa-8λ^6-thia-1,9,11,26-tetraazapentacyclo[14.7.2.13,7.110,14.017,22]heptacosa-3(27),4,6,10(26),11,13,17,19,21-nonaene-2,8,8-trione]: for the setting “from Cc1cccc(C)c1-c1cc(OC2CCNCc3ccccc32)nc(NS(=O)(=O)c2cccc(C(=O)O)c2)n1, amide bond, 14-membered ring, HATU/DIEA, DMF, 13.1 mM, 25.0 °C, 0.083 h, 3 steps”, the ring closure, yield after HPLC was determined as 12%. Also, in data set [1] (setting [2]), the EC50 is below 1000 nM. The “Ent. A Max Activity (%)” value in data set [1] (setting [3]) was “++ (++ is 30-60%)”.

Turning to `Cc1cccc(C)c1-c1cc2nc(n1)NS(=O)(=O)c1cccc(c1)C(=O)N1CC(CCc3ccccc31)O2` (stereo not shown) [Compound 228, 5-(2,6-Dimethylphenyl)-2-oxa-9λ^6-thia-6,8,16,27-tetraazapentacyclo[14.8.1.13,7.110,14.017,22]heptacosa-3(27),4,6,10,12,14(26),17(22),18,20-nonaene-9,9,15-trione], the ring closure, yield after HPLC (from Cc1cccc(C)c1-c1cc(Cl)nc(NS(=O)(=O)c2cccc(C(=O)N3CC(O)CCc4ccccc43)c2)n1, snar bond, 13-membered ring, NaH, DMF, 21.9 mM, 25.0 °C, 48.0 h) was determined as 15%. For the same molecule, in data set [1] (Enteroid Assay A), the “Ent. A Max Activity (%)” value was “++ (++ is 30-60%)” and the EC50 lay within 1000 to 3000 nM.

For `Cc1cccc(C)c1-c1cc2nc(n1)NS(=O)(=O)c1cccc(n1)C(=O)N1CCN(CCC(C)(C)C)CC(C1)O2` (stereo not shown) [Compound 70, 18-(3,3-Dimethylbutyl)-12-(2,6-dimethylphenyl)-15-oxa-8λ^6-thia-1,9,11,18,22,23-hexaazatetracyclo[14.4.1.13,7.110,14]tricosa-3,5,7(23),10,12,14(22)-hexaene-2,8,8-trione], the ring closure, yield after HPLC (from Cc1cccc(C)c1-c1cc(OC2CNCCN(CCC(C)(C)C)C2)nc(NS(=O)(=O)c2cccc(C(=O)O)n2)n1, amide bond, 13-membered ring, HATU/DIEA, DMF, 78.0 mM, 25.0 °C, 0.5 h, 2 steps) came out at 1%. Further, the “Ent. A Max Activity (%)” value in data set [1] (Enteroid Assay A) is reported as “+ (+ is <30%)”.

`Cc1cccc(C)c1-c1cc2nc(n1)NS(=O)(=O)c1cccc(c1)C(=O)N1CC(CN(Cc3ccccc3)[C@@H](CC(C)C)C1)O2` (stereo partly drawn) [Compound 107, (19S)-18-Benzyl-12-(2,6-dimethylphenyl)-19-(2-methylpropyl)-15-oxa-8λ^6-thia-1,9,11,18,22-pentaazatetracyclo[14.4.1.13,7.110,14]tricosa-3(23),4,6,10(22),11,13-hexaene-2,8,8-trione] came in with a ring closure, yield after HPLC (from Cc1cccc(C)c1-c1cc(Cl)nc(NS(=O)(=O)c2cccc(C(=O)N3CC(O)CN(Cc4ccccc4)[C@@H](CC(C)C)C3)c2)n1, snar bond, 13-membered ring, NaH, DMF, 29.1 mM, 0.0 °C, 4.0 h) of 3%. Also, in data set [1] (Enteroid Assay A), the “Ent. A Max Activity (%)” value is listed as “+++ (+++ is >600%)” and the concentration for a half-maximal effect (EC50) is below 1000 nM.

For `Cc1ccccc1-c1cc2nc(n1)NS(=O)(=O)c1cccc(c1)C(=O)N1Cc3ccccc3[C@@H](O2)[C@H]1CC(C)C` [Compound 192, (16R,24R)-12-(2-Methylphenyl)-24-(2-methylpropyl)-15-oxa-8λ^6-thia-1,9,11,25-tetraazapentacyclo[14.7.1.13,7.110,14.017,22]hexacosa-3(26),4,6,10,12,14(25),17,19,21-nonaene-2,8,8-trione], the ring closure, yield after HPLC (from Cc1ccccc1-c1cc(O[C@@H]2c3ccccc3CN[C@@H]2CC(C)C)nc(NS(=O)(=O)c2cccc(C(=O)O)c2)n1, amide bond, 13-membered ring, HATU/DIEA, DMF, 424.0 mM, 0.5 h, 3 steps) was 9%. Also, in data set [1] (Enteroid Assay A), the EC50 was below 1000 nM.

Molecule `Cc1cccc(C)c1-c1cc2nc(n1)NS(=O)(=O)c1cccc(c1)C(=O)N1Cc3cc(C(C)(C)C)ccc3[C@@H](O2)[C@H]1CC(C)(C)C` [Compound 189, (16R,24R)-20-tert-butyl-12-(2,6-dimethylphenyl)-24-(2,2-dimethylpropyl)-15-oxa-8λ^6-thia-1,9,11,25-tetraazapentacyclo[14.7.1.13,7.110,14.017,22]hexacosa-3(26),4,6,10(25),11,13,17,19,21-nonaene-2,8,8-trione] returned a ring closure, yield after HPLC (from Cc1cccc(C)c1-c1cc(O[C@@H]2c3ccc(C(C)(C)C)cc3CN[C@@H]2CC(C)(C)C)nc(NS(=O)(=O)c2cccc(C(=O)O)c2)n1, amide bond, 13-membered ring, HATU/NaOtBu, DMF/THF, 0.25 h, 2 steps) of 0.35%. Also, in data set [1] (Enteroid Assay A), the concentration for a half-maximal effect (EC50) was below 1000 nM.

In turn, `Cc1cccc(C)c1-c1cc2nc(n1)NS(=O)(=O)c1cccc(c1)C(=O)N1C(c3cncc(N(C)C4CCC4)n3)CC[C@H](O2)[C@H]1CC(C)C` (stereo partly shown) registered a ring closure, yield after HPLC (from Cc1cccc(C)c1-c1cc(Cl)nc(NS(=O)(=O)c2cccc(C(=O)N3C(c4cncc(N(C)C5CCC5)n4)CC[C@H](O)[C@H]3CC(C)C)c2)n1, snar bond, 13-membered ring, NaH, DMF, 21.5 mM, 24.0 h) of 4% and a ring closure, yield after HPLC (from Cc1cccc(C)c1-c1cc(O[C@H]2CCC(c3cncc(N(C)C4CCC4)n3)N[C@@H]2CC(C)C)nc(NS(=O)(=O)c2cccc(C(=O)O)c2)n1, amide bond, 13-membered ring, CDMT/NMM, DMF, 16.6 mM, 48.0 h, 2 steps) of 31.6%.

With `Cc1cccc(C)c1-c1cc2nc(n1)NS(=O)(=O)c1cccc(c1)NC(=O)CN1CCCC(C1)O2` (stereo not shown) [Compound 160, 5-(2,6-Dimethylphenyl)-2-oxa-9λ^6-thia-6,8,15,18,24-pentaazatetracyclo[16.3.1.13,7.110,14]tetracosa-3(24),4,6,10,12,14(23)-hexaene-9,9,16-trione], for the setting “from Cc1cccc(C)c1-c1cc(OC2CCCN(CC(=O)Nc3cccc(S(N)(=O)=O)c3)C2)nc(Cl)n1, cn_pd bond, 15-membered ring, Pd(OAc)2/Xantphos/Cs2CO3, dioxane, 20.1 mM, 100.0 °C, 16.0 h”, the ring closure, yield after HPLC is 17%. The EC50 in data set [1] (setting [2]) lay within 1000 to 3000 nM. In addition, the “Ent. A Max Activity (%)” value in data set [1] (setting [3]) is listed as “+ (+ is <300%)”.

The molecule `Cc1cccc(C)c1-c1cc2nc(n1)NS(=O)(=O)c1cccc(c1)C(=O)N1CC(O2)C2CCCN(C)C2C1` (single isomer, unassigned; diastereomer 1) registered a ring closure, yield after HPLC (from Cc1cccc(C)c1-c1cc(OC2CNCC3C2CCCN3C)nc(NS(=O)(=O)c2cccc(C(=O)O)c2)n1, amide bond, 13-membered ring, HATU/DIEA, DMF, 20.5 mM, 25.0 °C, 1.0 h) of 54%.

Under “from Cc1cccc(C)c1-c1cc(O[C@H]2c3ccc(C(C)(C)C)cc3CN[C@@H]2CC(C)(C)C)nc(NS(=O)(=O)c2cccc(C(=O)O)c2)n1, amide bond, 13-membered ring, HATU/NaOtBu, DMF/THF, 0.25 h, 2 steps”, `Cc1cccc(C)c1-c1cc2nc(n1)NS(=O)(=O)c1cccc(c1)C(=O)N1Cc3cc(C(C)(C)C)ccc3[C@H](O2)[C@H]1CC(C)(C)C` came in with a ring closure, yield after HPLC of 3%.

Molecule `Cc1cccc(C)c1-c1cc2nc(n1)NS(=O)(=O)c1cccc(c1)C(=O)N1Cc3cc(C(F)(F)F)ccc3[C@@H](O2)[C@H]1CC(C)C` had a ring closure, yield after HPLC (from Cc1cccc(C)c1-c1cc(O[C@@H]2c3ccc(C(F)(F)F)cc3CN[C@@H]2CC(C)C)nc(NS(=O)(=O)c2cccc(C(=O)O)c2)n1, amide bond, 13-membered ring, HATU/NaOtBu, DMF/THF, 0.25 h, 3 steps) of 3%.

The molecule `Cc1cccc(C)c1-c1cc2nc(n1)NS(=O)(=O)c1cccc(c1)C(=O)N1Cc3ccncc3C(C1)O2` (stereo not shown) came in with a ring closure, yield after HPLC (from Cc1cccc(C)c1-c1cc(OC2CNCc3ccncc32)nc(NS(=O)(=O)c2cccc(C(=O)O)c2)n1, amide bond, 13-membered ring, HATU/DIEA, DMF, 23.5 mM, 0.5 h, 2 steps) of 3%.

In turn, `Cc1ccccc1-c1cc2nc(n1)NS(=O)(=O)c1cccc(c1)C(=O)N1Cc3ccccc3[C@H](O2)[C@H]1CC(C)C` returned a ring closure, yield after HPLC (from Cc1ccccc1-c1cc(O[C@H]2c3ccccc3CN[C@@H]2CC(C)C)nc(NS(=O)(=O)c2cccc(C(=O)O)c2)n1, amide bond, 13-membered ring, HATU/DIEA, DMF, 190.0 mM, 0.5 h, 3 steps) of 18%.

(Values after patent US20240018161A1, “MODULATORS OF CYSTIC FIBROSIS TRANSMEMBRANE CONDUCTANCE REGULATOR” (VERTEX PHARMACEUTICALS INCORPORATED, priority 2020, published 2024).)
